{
  "source": "patent US5576311A",
  "about": "“Cyclodextrins as suspending agents for pharmaceutical suspensions” (Pharmos Corporation, priority 1994, dated 1996)",
  "key": {"[1]": {"settings": "in vivo; cited from earlier work"}, "[2]": {"assay": "Method D: solubilization of LE by cyclodextrins, HPLC before and after centrifugation", "assay_type": "physicochemical", "description": "To evaluate solubilization of drugs such as LE by cyclodextrins, LE is continuously mixed with cyclodextrins in various concentrations in water for one week at room temperature. Samples of the resulting suspensions and the soluble fractions of LE are analyzed by high pressure liquid chromatography (\"HPLC\") before and after centrifugation at 5000 G, respectively (hereinafter referred to as \"Method D\"). The concentrations of LE are calculated from the area under the curve of the LE peak using known techniques."}, "[3]": {"assay": "Stability of aqueous suspensions of LE with buffering systems or ionic tonicity agents", "assay_type": "physicochemical", "settings": "accepted buffering systems or ionic tonicity agents"}, "[4]": {"assay": "HPLC measurement of concentration of LE in cyclodextrin suspensions after storage", "assay_type": "physicochemical"}, "[5]": {"settings": "in vivo; cited from earlier work", "remark": "listed apart in the source"}, "glucocorticoid receptors": {"tested_on": "glucocorticoid receptors", "settings": "cited from earlier work"}, "[6]": {"settings": "25° C.; cited from earlier work"}},
  "note": "Like-named read-outs stand apart in the source and are kept apart here.",
  "data": [
    {"smiles": "CCOC(=O)O[C@]1(C(=O)OCCl)CC[C@H]2[C@@H]3CCC4=CC(=O)C=C[C@]4(C)[C@H]3[C@@H](O)C[C@@]21C", "note": "[LE, loteprednol etabonate]", "values": [
      {"measurement": "efficacy relative to prednisolone acetate", "setting": "[1]", "value": "efficacy similar to its parent compound, namely, prednisolone acetate"},
      {"measurement": "ocular anti-inflammatory activity", "setting": "[1]", "value": "has ocular anti-inflammatory activity"},
      {"measurement": "solubility at 168 h", "setting": "[2]; water with 0.5% hpcd, 0.5% HPCD, water, one week, room temperature, read-out: LE Solubilized", "value": 7, "unit": "µg/mL"},
      {"measurement": "solubility at 168 h", "setting": "[2]; water with 1.0% bcd, 1.0% BCD, water, one week, room temperature, read-out: LE Solubilized", "value": 10, "unit": "µg/mL"},
      {"measurement": "solubility at 168 h", "setting": "[2]; water with 1.0% hecd, 1.0% HECD, water, one week, room temperature, read-out: LE Solubilized", "value": 10, "unit": "µg/mL"},
      {"measurement": "solubility at 168 h", "setting": "[2]; water with 1.0% hpcd, 1.0% HPCD, water, one week, room temperature, read-out: LE Solubilized", "value": 5, "unit": "µg/mL"},
      {"measurement": "solubility at 168 h", "setting": "[2]; water with cyclodextrin, all cyclodextrins of Table 3, read-out: LE solubilized by cyclodextrins", "value": "≤ 10", "unit": "µg/mL"},
      {"measurement": "obtaining stable aqueous suspensions", "setting": "[3]", "value": "cannot be obtained"},
      {"measurement": "[LE] measurement (% of label)", "setting": "[4]; 5 mg/ml label, BCD 1%, 23 C, 4.0 mos, 172800 min", "value": "106.78 % of label"},
      {"measurement": "[LE] measurement (% of label)", "setting": "[4]; 5 mg/ml label, HECD 1%, 23 C, 4.0 mos, 172800 min", "value": "104.26 % of label"},
      {"measurement": "[LE] measurement (% of label)", "setting": "[4]; 5 mg/ml label, HPCD 0.5%, 23 C, 5.0 mos, 216000 min", "value": "101.12 % of label"},
      {"measurement": "[LE] measurement (% of label)", "setting": "[4]; 5 mg/ml label, HPCD 1%, 23 C, 0.5 mos, 21600 min", "value": "94.3 % of label"},
      {"measurement": "[LE] measurement (% of label)", "setting": "[4]; 5 mg/ml label, HPCD 1%, 23 C, 5.0 mos, 216000 min", "value": "115.45 % of label"},
      {"measurement": "[LE] measurement (% of label)", "setting": "[4]; 5 mg/ml label, HPCD 1%, 37 C, 2.0 mos, 86400 min", "value": "104.04 % of label"},
      {"measurement": "[LE] measurement (% of label)", "setting": "[4]; 5 mg/ml label, HPCD 1%, 45 C, 2.0 mos, 86400 min", "value": "96.84 % of label"},
      {"measurement": "[LE] measurement (% of label)", "setting": "[4]; 10 mg/ml label, BCD 1%, 23 C, 4.0 mos, 172800 min", "value": "105.7 % of label"},
      {"measurement": "[LE] measurement (% of label)", "setting": "[4]; 10 mg/ml label, HECD 1%, 23 C, 4.0 mos, 172800 min", "value": "135.88 % of label"},
      {"measurement": "[LE] measurement (% of label)", "setting": "[4]; 10 mg/ml label, HPCD 0.5%, 23 C, 5.0 mos, 216000 min", "value": "109.09 % of label"},
      {"measurement": "[LE] measurement (% of label)", "setting": "[4]; 10 mg/ml label, HPCD 1%, 23 C, 0.5 mos, 21600 min", "value": "88.18 % of label"},
      {"measurement": "[LE] measurement (% of label)", "setting": "[4]; 10 mg/ml label, HPCD 1%, 23 C, 5.0 mos, 216000 min", "value": "110.23 % of label"},
      {"measurement": "concentration of LE in the suspension (in words)", "setting": "[4]; Table 4 storage", "value": "not significantly altered"},
      {"measurement": "risk of steroid induced cataracts and elevation of intra-ocular pressure", "setting": "[5]", "value": "reducing the risk of steroid induced cataracts and elevation of intra-ocular pressure"}
    ]},
    {"smiles": "CCOC(=O)OC1(C(=O)O)CCC2C3CCC4=CC(=O)C=CC4(C)C3C(O)CC21C", "note": "(stereo not drawn) [PJ-91]", "values": [
      {"measurement": "binding to glucocorticoid receptors", "setting": "glucocorticoid receptors", "value": "does not bind to glucocorticoid receptors"}
    ]},
    {"smiles": "OC[C@H]1O[C@@H]2O[C@H]3[C@H](O)[C@@H](O)[C@@H](O[C@H]4[C@H](O)[C@@H](O)[C@@H](O[C@H]5[C@H](O)[C@@H](O)[C@@H](O[C@H]6[C@H](O)[C@@H](O)[C@@H](O[C@H]7[C@H](O)[C@@H](O)[C@@H](O[C@H]8[C@H](O)[C@@H](O)[C@@H](O[C@H]1[C@H](O)[C@H]2O)O[C@@H]8CO)O[C@@H]7CO)O[C@@H]6CO)O[C@@H]5CO)O[C@@H]4CO)O[C@@H]3CO", "note": "[β-Cyclodextrin, β-cyclodextrin]", "values": [
      {"measurement": "aqueous solubility", "setting": "[6]", "value": "about 1.8 % w/v"}
    ]}
  ]
}
